The values that follow come from patent US9867879B2 (Vanderbilt University, priority 2015, dated 2018).

Assay [1] concerns the target T183K point mutant of hemY (Staphylococcus aureus, UniProt Q2FXA5, T183K). Briefly: Activation of hemY, T183K mutant. It is filed as biochemical, S. aureus.
Assay [2] relates to heme biosynthetic pathway. Put plainly: Accumulation of heme precursor molecules. It is filed as cell-based, S. aureus. As to conditions: data not shown. An excerpt: Because ALA is the first committed precursor molecule in the heme biosynthetic pathway, if ALA is contacted with bacteria, the bacteria will generated enhanced amounts of all of the heme precursor molecules downstream of ALA.

For assay [3], the system named is hemY/PPO. Briefly: Activation of hemY/PPO, Propionibacterium acnes. In kind it is biochemical.
The target of the next assay is T1, mammalian PPO (Homo sapiens, UniProt P50336).
T1 sequence (P50336 1-477): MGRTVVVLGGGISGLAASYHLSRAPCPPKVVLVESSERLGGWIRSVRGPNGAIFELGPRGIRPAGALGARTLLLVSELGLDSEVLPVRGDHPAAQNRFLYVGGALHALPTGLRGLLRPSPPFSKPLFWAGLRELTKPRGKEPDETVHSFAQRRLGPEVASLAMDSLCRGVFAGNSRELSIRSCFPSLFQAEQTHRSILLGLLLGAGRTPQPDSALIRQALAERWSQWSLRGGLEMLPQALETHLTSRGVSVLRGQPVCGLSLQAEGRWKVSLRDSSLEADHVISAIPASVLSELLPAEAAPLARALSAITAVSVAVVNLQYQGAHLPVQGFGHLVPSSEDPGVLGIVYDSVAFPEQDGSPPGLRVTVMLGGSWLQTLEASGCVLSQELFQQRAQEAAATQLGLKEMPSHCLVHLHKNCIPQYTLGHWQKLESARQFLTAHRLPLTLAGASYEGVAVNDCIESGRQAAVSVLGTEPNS
Briefly: Activation of mammalian PPO. It is filed as biochemical.

The target of assay [4] is hemY/PPO (Bacillus subtilis, UniProt P32397). Briefly: Activation of hemY/PPO, Bacillus subtilis. In kind it is biochemical.
For assay [5], the system named is S. aureus. Briefly: Phototherapy: compound plus light, CFU count. It is filed as cell-based. Here is the method:
Briefly, S. aureus was incubated with the 882 compound for 30 minutes at 37° C., treated with light for 45 minutes (500 W halogen), and then a colony-forming unit (CFU) count was conducted.

The target in a further assay is T2, wild type S. aureus hemY (Staphylococcus aureus, UniProt Q2FXA5).
T2 sequence (Q2FXA5 1-466): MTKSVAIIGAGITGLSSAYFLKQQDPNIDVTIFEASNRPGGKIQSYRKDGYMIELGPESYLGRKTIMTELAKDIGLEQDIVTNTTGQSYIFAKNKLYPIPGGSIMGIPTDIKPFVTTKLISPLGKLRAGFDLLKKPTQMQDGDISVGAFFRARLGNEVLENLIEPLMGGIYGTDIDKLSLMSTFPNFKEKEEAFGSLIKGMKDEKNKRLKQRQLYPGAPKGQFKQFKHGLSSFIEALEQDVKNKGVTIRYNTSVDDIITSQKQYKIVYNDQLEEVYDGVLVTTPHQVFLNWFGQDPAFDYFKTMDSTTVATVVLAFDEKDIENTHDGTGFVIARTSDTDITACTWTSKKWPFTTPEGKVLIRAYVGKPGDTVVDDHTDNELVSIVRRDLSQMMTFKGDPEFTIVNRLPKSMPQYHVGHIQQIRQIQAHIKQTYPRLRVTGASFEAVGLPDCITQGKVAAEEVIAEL
Put plainly: Activation of hemY, wild type. In kind it is biochemical.

Assay [6] concerns wild type S. aureus strain Newman. Briefly: Growth inhibition IC50, Newman aerobic. In kind it is cell-based. The following applies: Staphylococcus aureus, NEWMAN, 9 h, read-out: IC50 Newman aerobic, 9 h of growth, aerobic; 95% confidence interval; >60 μM considered nontoxic. How it is done:
(§1) Cultures of wild type S. aureus strain Newman and ΔmenB^14 were grown in aeration tubes aerobically at 37° C. with shaking for 15-18 h. Anaerobic cultures were prepared by growing bacteria at 37° C. without shaking in an anaerobic chamber for 15-18 h. Bacteria from each condition were subcultured 1:100 into TSB containing various concentrations of compound in a 96 well plate. Aerobic wild type and ΔmenB plates are incubated aerobically at 37° C. with shaking while anaerobic plates were grown in an anaerobic chamber (Coy) at 37° C. without shaking. The absorbance at 600 nm (OD600) was determined after 9 h of growth and the fraction of growth at each compound concentration is determined by dividing the OD600 by the vehicle control (DMSO) value. IC50s were calculated using Graphpad Prism 6 and errors are reported as 95% confidence intervals.
(§2) Wild type S. aureus strain Newman was grown in an anaerobic chamber in appropriate media to ensure exclusion of terminal electron acceptors sufficient to force the bacteria to ferment. […] The arbitrary cut off point for toxicity of 60 μM was chosen as many of the compounds were not entirely soluble above this concentration.

Assay [7] shares this test system. Briefly: Growth inhibition IC50, Newman anaerobic (fermenting). In kind it is cell-based. Here is the method:
as §1, §2

The subject of the next assay is ΔmenB. Put plainly: Growth inhibition IC50, ΔmenB. It is filed as cell-based, S. aureus. The following applies: Staphylococcus aureus, 9 h, read-out: IC50 ΔmenB. How it is done: as §1, with “intervals. […]” for “intervals.”
Assay [8] deals with S. aureus. As to conditions: earlier method, low cell density; cited from earlier work.
The subject of another assay is S. aureus infection. As to conditions: previously reported; cited from earlier work.
The next assay has as its system HssRS. Put plainly: microbe, parasite or virus in culture. It is filed as cell-based, S. aureus. The following applies: for EC50: Staphylococcus aureus, 6 h. Here is the method: Previously reported strains were used.^11 Cultures grown overnight in 5 ml TSB with 10 μg mL^−1 chloramphenicol for 15-18 h were subcultured 1:100 into 0.5 mL TSB with 10 μg mL^−1 chloramphenicol containing compound and incubated at 37° C., 180 rpm for 6 h. Cells were washed and lysed as previously described. 200 μL of a 200 μM catechol solution in 100 mM potassium phosphate (pH 8.0) was added to 20 μL of lysate and the oxidation of catechol was followed by monitoring absorbance at 375 nm for 10 min. Samples were normalized to protein concentration as determined by BCA assay (Pierce).
The above XylE procedure was followed using different concentrations of compound. The data were then entered into Graphpad Prism 6 and fit to a curve to determine EC50 values.
HssRS activation. The library was screened for activation of the heme stress response as an indicator for activation of heme biosynthesis in S. aureus. We began by screening at the single point concentration of 50 μM using a previously described reporter assay (FIG. 4).^11 In this assay, Newman harboring a plasmid with the hrt promoter fused to xylE, a gene encoding a catechol oxidase, is treated with compound for six hours, the bacteria lysed, and the oxidation of catechol by XylE quantified by spectrophotometry. An increase in absorbance due to the oxidation of catechol indicates elevated levels of xylE transcription and hrt promoter activity. Results are expressed as the fraction of activation of HssRS by the compound compared to 1. […] With reference to FIG. 8, activation of HssRS by 3a and 3b at 50 μM. Activity is presented as the fraction of activation by the indicated derivative relative to 1 at 50 μM.

Entries after “also recorded” stand apart in the source; their conditions may differ. Where two headings read alike, the source gives them in different places.

Sequence of hemY/PPO (Bacillus subtilis, UniProt P32397) (P32397 whole entry): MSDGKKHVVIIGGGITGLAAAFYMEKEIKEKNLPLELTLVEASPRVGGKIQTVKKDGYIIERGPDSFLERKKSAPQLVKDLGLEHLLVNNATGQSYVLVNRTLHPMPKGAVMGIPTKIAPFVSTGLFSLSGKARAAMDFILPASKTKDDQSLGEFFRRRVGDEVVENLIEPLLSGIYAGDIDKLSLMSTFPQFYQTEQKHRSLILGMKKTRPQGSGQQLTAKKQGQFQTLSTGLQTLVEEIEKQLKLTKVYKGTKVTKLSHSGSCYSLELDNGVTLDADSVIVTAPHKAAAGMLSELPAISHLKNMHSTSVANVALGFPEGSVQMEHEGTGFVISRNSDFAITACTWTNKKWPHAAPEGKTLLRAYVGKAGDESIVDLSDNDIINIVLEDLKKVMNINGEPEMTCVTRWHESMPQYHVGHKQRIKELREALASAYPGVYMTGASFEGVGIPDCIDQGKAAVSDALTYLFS

Turning to `Oc1c(-c2cc(-c3ccco3)[nH]n2)ccc2ccccc12` [882 compound], the figures for the “activation of hemY” value (in assay [1]; on wild type S. aureus hemY) were “not the T183K point mutant of hemY” and “activates wild type S. aureus hemY”, respectively. Also, the PPIX accumulation result in [2] is “does increase PPIX accumulation”. Further, the “accumulation of PBG” value in assay [2] is listed as “does not”. The “activation of hemY/PPO” value in the assay on hemY/PPO [3] was “activates”; at hemY/PPO [4], “activates hemY/PPO in Bacillus subtilis”. At mammalian PPO, the “activation of PPO” value was “activates”. The “toxicity with light compared to ALA and light” value in the assay on S. aureus [5] (882 50 μM and light vs ALA 10 mg/mL and light) was “more toxic to the bacteria than ALA”. In addition, the photosensitization entry in the assay with S. aureus [5] (30 min at 37° C., light 45 min (500 W halogen), CFU count) is given as “leads to staphylococcal photosensitization”.
In general, IC50 refers to the concentration at which inhibition is half-maximal. Turning to `Oc1ccccc1-c1cc(-c2ccccc2F)[nH]n1` [Compound 2e], the half-maximal inhibitory concentration (IC50) in assay [6] was more than 60 µM; in assay [7] (Staphylococcus aureus, NEWMAN, 9 h of growth, anaerobic chamber, 95% confidence interval, >60 μM considered nontoxic), more than 60 µM; in the assay on ΔmenB it was more than 60 µM. In addition, in [7] (anaerobic Newman and ΔmenB, from IC50 data), the “toxicity to fermenting / anaerobic S. aureus (in words)” value is “eliminates this toxicity; also recorded: not bacteriostatic under the conditions tested here; also recorded: removes toxicity”. Moreover, the “anaerobic toxicity (previously reported)” value in the assay with S. aureus [8] is recorded as “anaerobic toxicity”. Also, the “efficacy in mouse model of S. aureus infection” value in the assay on S. aureus infection is “efficacy in a mouse model of S. aureus infection”. In addition, the “HssRS activation in single point screen” value with HssRS (50 μM, fraction of activation relative to 1, cut-off 0.05, in words) is “comparable to 1a in activity”. In addition, the EC50 in the assay on HssRS and in the assay on HssRS (read-out: pEC50 (converted)) was 10.7 µM throughout. Further, the drop in efficacy in the assay with HssRS (compared to 1) is on record as approximately 70%. In the assay on HssRS (percent activation of HssRS compared to 1 at 50 μM, error one standard deviation), the Efficacy amounted to 35.7 ± 10.1%.
